# In US12667546B2, “Methods for manipulating cell state transitions in cancer” (AGENCY FOR SCIENCE, TECHNOLOGY AND RESEARCH, priority 2018, dated 2026):
# How the values were obtained:
# NAMEC8 [1] = assay: Expression of EMT and lineage markers (qRT-PCR, immunoblot, immunofluorescence) in NAMEC8; type: cell-based, human; conditions: transcript and protein
# Procedure: Cells were rinsed twice in ice-cold PBS. Total RNA was extracted using Trizol (Invitrogen) and column-purified with RNeasy kits (Qiagen). cDNA synthesis was performed with 500 ng of total RNA at 37° C. for 2 h using the SuperScript III First-Strand Synthesis System (Thermo Fisher Scientific), and subsequently diluted 5-fold. mRNA levels were measured with gene-specific primers listed below using the ABI Prism 7900HT Sequence Detection System 2.2 (Applied Biosystems). Results were normalized to GAPDH and analyzed using SDS 2.2 software.
# Cells were harvested and scraped from culture dishes in ice-cold PBS. They were then centrifuged at 12000 rpm for 5 min at 4° C. The pellets were then snap frozen in liquid nitrogen or lysed in ice-cold RIPA lysis buffer (Thermo Scientific) and left on ice for 30 min. Subsequently, the lysates were centrifuged at 12000 rpm for 10 min at 4° C. The supernatants were then aspirated and placed in fresh tubes. Protein concentrations were determined using Coomaisse Blue. 50-80 μg total protein was mixed with NuPAGE™ LDS sample buffer and heated at 70° C. for 10 min. Samples were loaded into NuPAGE™ 4-12% Bis-Tris gels (precast polyacrylamide gel; Invitrogen™). Gel electrophoresis was done at 200V for 1.5 h and then blotted onto nitrocellulose membranes (Trans-Blot Turbo™ transfer pack; Bio-Rad). The membranes were blocked with 5% skimmed milk in Tris-buffered saline (TBS; 1st BASE) with 0.1% Tween-20 (Santa Cruz), and then incubated with primary antibodies overnight at 4° C. Thereafter, the membranes were incubated with a horseradish peroxidase (HRP)-conjugated secondary antibody at room temperature for one hour. Finally, the immunoreactive proteins were visualized by using an enhanced chemiluminescent (ECL) reagent (Thermo Scientific, 34075) with the Chemidoc™ Imager (Bio-Rad, 17001401).
# Cell cultures were fixed in 4% paraformaldehyde and permeabilized with 0.25% Triton X-100, followed by blocking with 1% bovine serum albumin in PBST. Cells were incubated in specific primary antibodies, followed by the appropriate secondary antibodies conjugated with Alexa Fluor-488 or -594 (Molecular Probes). Cell nuclei were then stained with DAPI and then viewed and imaged with an Axio Observer D1 epifluorescence microscope with a built-in AxioCamMR3 camera (Zeiss), using the optimal filters and 100-200× magnifications.
# NAMEC8 [2] = assay: Lipid droplet staining (Bodipy); type: cell-based, human; conditions: NAMEC8, with bexarotene
# Procedure: Intracellular lipid droplets were visualized with fluorescent Bodipy dye. Cells in culture were fixed in 4% paraformaldehyde for 15 min at room temperature, rinsed twice with PBS and permeabilized with 0.2% TritonX-100 in PBS for 10 min and incubated with Bodipy diluted in PBS (final concentration 1 μg/ml) for overnight at 4° C. Cells were washed with PBS and stained with DAPI. Fluorescence images were obtained with an Axio Observer D1 epifluorescence microscope with a built-in AxioCamMR3 camera (Zeiss), using the optimal filters and 100-200× magnifications.
# NAMEC8 [3] = assay: Mammosphere assay, NAMEC8; type: cell-based, human; conditions: NAMEC8, pre-treated cells
# Procedure: For mammosphere culture, cells were seeded onto 96-well ultralow-adherence plates at 700 cells/well in Mammocult medium (Stem Cell Technologies) supplemented with 4 μg/ml heparin, 0.5 μg/ml hydrocortisone and 1% methylcellulose. Spheres (>100 μm) were counted at 7-10 days later.
# NAMEC8 [4] = assay: Cell morphology of treated NAMEC8; type: cell-based, human; conditions: bexarotene, TTNPB, SGC-CBP30, UNC0642, A-485 1 μM, LLY-283, GSK591 20 nM, C-IN-1 500 nM
# Procedure: Human mammary epithelial cell lines (HMLE) were generated as described and immortalized using retroviral vectors to express the catalytic subunit of the human telomerase enzyme, hTERT and the SV-40 Large T antigen. NAMEC8 was generated as described. Briefly, HMLE cells were grown to 50% confluency, followed by differential trypsinization for 1 minute with 0.05% trypsin. Detached cells were carefully collected and re-plated at approximately 200 cells per well of a 24-well plate. Upon expansion, wells were screened for populations that were morphologically mesenchymal and can be stably propagated. Clonal and non-clonal NAMEC cell lines were generated. NAMEC8 is a non-clonal line derived from at least 200 mesenchymal cells. HMLE cells and NAMECs were maintained in MEGM (Lonza).
# [5] = test system: SERPINE1prom-Luc reporter in NAMEC8 cells; assay: Dual-Glo luciferase assay of SERPINE1prom-Luc reporter (FF/Ren); type: cell-based, human; conditions: for dose-dependent change of SERPINE1 promoter activity: dose response (metabolic hits 10 nM to 2 μM; epigenetic hits six concentrations)
# Text: pGreenFire1-mCMV was cut using ClaI and SpeI and gel purified. Promoter sequences of genes Zeb1, Serpine1, CDH1, CD24, CD44, CD166 were amplified from human genomic DNA with pre-designed primers containing ClaI and SpeI restriction cut sites using AccuPrime Taq DNA Polymerase (Thermo Fisher Scientific). PCR products were then digested with restriction enzymes and gel-purified. Vector was ligated with PCR insert using Quick Ligase (Fermentas) and transformed into Stb12 competent cells. Colonies were picked and inoculated into TB media with ampicillin. Plasmids were then isolated using a plasmid miniprep kit (Qiagen) and sent for sequencing (1 stBASE Laboratories). After verifying the plasmid sequence, transfection into HEK293 cells was carried out to generate lentivirus. Transfection was carried out using FuGENE 6 (Promega). Viral supernatant was harvested at 24 h and 48 h. NAMEC8 cells were then infected twice with virus using polybrene ([…]) and checked for good transduction efficiency using Dual-Glo Luciferase System (Promega).
# Stock plates of compound libraries were kindly prepared by GIS CHiP facility at 1 mM concentration in DMSO. NAMEC8-SERPINE1prom-Luc cells were seeded into 384 well plates at a density of 700 cells/well in a total volume of 50 μl, using an automated dispensing system (BioTek). 0.5 μl of compounds were then added to the wells the following day using a robotic pin transfer with a Bravo workstation (Agilent Technologies). Cells were then grown for 3 days and promoter-luciferase activity was measured using the Dual-Glo Luciferase System (Promega).
# Assay was carried out according to manufacturer's instructions. To measure luciferase activity in 384 well plates, media was first removed from the plate. Firefly luciferase activity was determined by adding 30 μl Dual-Glo Luciferase substrate (Promega) to the wells and incubated for 10 min before measuring luminescence using a TECAN M1000 Pro plate reader. 15 μl Dual-Glo Stop & Glo substrate was then added to the wells, incubated for 10 min and measuring luminescence on the plate reader to determine Renilla luciferase activity. Promoter luciferase activity is then calculated by taking Firefly luciferase over Renilla luciferase.
# [6] = test system: NAMEC8-SERPINE1prom-Luc cells; assay: Renilla-luciferase (constitutive CMV promoter) readout for cell numbers; type: cell-based, human; conditions: primary screen, Renilla as readout for cell numbers, relative to DMSO
# SUM159 [7] = assay: Cell morphology of treated SUM159; type: cell-based, human; conditions: bexarotene, TTNPB 1 μM
# Procedure: HMLE-Twist-ER cells were generated as described. For EMT-induction, 100 nM of 4-hydroxytamoxifen in ethanol was added to the culture medium every 48 h to induce Twist expression. Control cells were treated with ethanol. MCF7-Slug+Sox9 cells were generated as previously described. HMLE-Zeb1 cells were generated by infection with FUW-Zeb1 and rTTA. Doxycycline was added to the culture medium every 48 h to induce Zeb1 expression. To generate tumorigenic cells from NAMEC8, cells were infected with pWZL-Blast-Ras. MCF7, MCF7-Ras, SUM159 were maintained as previously described. All cell cultures were maintained at 37° C. with 5% CO2.
# SUM159 [8] = assay: Tumor growth of ex vivo pre-treated SUM159 injected subcutaneously; type: in vivo, NSG mice; conditions: short-term (14 days) ex vivo treatment before transplantation
# Procedure: (§1) All animal experiments were approved by the Agency for Science Technology and Research Singapore-Biological Resource Centre IACUC (Protocol number 140940). For pre-treated SUM159 and MCF7-Ras cells, 1×10^6 cells were suspended in 100 μl media containing 50% matrigel and injected subcutaneously into both flanks of female NSG mice. The NSG mice were checked for tumor by palpation once a week and tumors were harvested when they reached ˜15 mm in diameter. For treatment in NSG mice, 1×10^5 NAMEC8-Ras cells were suspended in 100 μl media containing 50% matrigel and injected subcutaneously into both flanks of NSG mice. The NSG mice were checked for tumor formation by palpation and when tumors were about 3 mm, mice were randomized into two groups: vehicle (5% DMSO in corn oil) and treatment (Bexarotene, 100 mg/kg/day oral dosing). Tumor size was measured every week using Vernier calipers and mice were sacrificed when tumors reached ˜15 mm or after ˜4 weeks of treatment. For patient-derived cells, 2×10^6 cells were injected subcutaneously per site in NSG mice.
# [9] = test system: Estrogen response element (ERE)-luciferase reporter in NAMEC8; assay: ERE-luciferase activity assay; type: cell-based, human
# Procedure: ERE luciferase construct was kindly provided by Alan Prem Kumar, CSI, Singapore. To measure the ERE-luciferase activity, cells were seeded 24 h before transfection. ERE-luciferase (1 μg) and NSV-Renilla (0.1 μg) were packaged using Lipofectamine 2000 and transfected into NAMEC8. 24 h post-transfection, cells were reseeded into 96 well plates for drug treatment. Firefly and Renilla luciferase activities were measured with the Dual-Glo Luciferase System (Promega) 24 h post-treatment.
# MCF7-Ras = assay: Tumor growth of ex vivo pre-treated MCF7-Ras injected subcutaneously; type: in vivo, NSG mice; conditions: ex vivo treatment before injection
# Procedure: as §1
# SUM159 PACR cells = assay: Cell viability IC50 in SUM159 PACR cells; conditions: SUM159 PACR vs SUM159 PT
compound,measurement,setting,value
COc1cc(C)c(C(=O)Oc2cc(C)c(C(=O)Oc3cc(C)c(C(=O)NC(C)C(=O)O)c(O)c3)c(O)c2)c(OC)c1 (centres unmarked) [AmidepsineA],expression of EMT and basal/luminal markers,NAMEC8 [1],"the gain in epithelial-luminal gene markers such as E-cadherin, KRT8, and MUC1 were suppressed"
same,accumulation of lipid droplets during retinoid treatment,NAMEC8 [2],clear reductions in the accumulation of lipid droplets during retinoid treatment
CCCCCCCCCS(=O)(=O)Nc1ccccc1C(=O)O [FSG67],expression of EMT and basal/luminal markers,NAMEC8 [1],"the gain in epithelial-luminal gene markers such as E-cadherin, KRT8, and MUC1 were suppressed"
same,accumulation of lipid droplets during retinoid treatment,NAMEC8 [2],clear reductions in the accumulation of lipid droplets during retinoid treatment
O=C(NC[C@H](O)CN1CCc2ccccc2C1)c1ccnc(NC2CCC2)c1 [GSK591],mammosphere formation,NAMEC8 [3],significantly reduce the size and number of spheres formed
same,expression of EMT and basal/luminal markers,NAMEC8 [1],no apparent change was observed
CN(C)c1ccc(C2Nc3ccc4ccccc4c3C3=C2C(=O)CC(C)(C)C3)cc1Br (centres unmarked) [Glutaminase C-IN-1],cell morphology,NAMEC8 [4],morphological change from a scattered distribution typically observed in mesenchymal cells to tight clusters of epithelial islands
same,dose-dependent change of SERPINE1 promoter activity,[5],dose dependent decrease in SERPINE1 promoter activity
same,dose-dependent change of SERPINE1 promoter activity,[5]; listed as C-IN-1,dose-response effect of decreasing SERPINE1 promoter activity
same,expression of EMT and basal/luminal markers,NAMEC8 [1],"mesenchymal proteins Zeb1, fibronectin, Slug and Snail were decreased, epithelial E-Cadherin was increased"
Nc1ncnc2c1ccn2[C@@H]1O[C@H]([C@H](O)c2ccccc2)[C@@H](O)[C@H]1O [LLY-283],mammosphere formation,NAMEC8 [3],significantly reduce the size and number of spheres formed
same,expression of EMT and basal/luminal markers,NAMEC8 [1],no apparent change was observed
C/C(=C\c1ccc(C(=O)O)cc1)c1ccc2c(c1)C(C)(C)CCC2(C)C [TTNPB],cell morphology,NAMEC8 [4],"dramatic change in morphology from scattered, spindle and fibroblastic-like cells to an epithelial-like morphology"
same,Avr FF/Renilla from DMSO,"[5]; primary screen, NAMEC8-SERPINE1prom-Luc cells grown 3 days with compound, relative to DMSO",0.19
same,% Avr Renilla from DMSO,[6],58.46%
same,cell morphology,SUM159 [7],"dramatic change in morphology from scattered, spindle and fibroblastic-like cells to an epithelial-like morphology"
same,tumorigenic potential,SUM159 [8],severely crippled their tumorigenic potential for up till seven weeks post-transplantation
same,ERE-luciferase reporter activity,[9],increased
"CC1=C(/C=C/C(C)=C/C=C/C(C)=C/C(=O)O)C(C)(C)CCC1 [Tretinoin (Aberela), Tretinoin]",activity at 10 µM,"[5]; Homo sapiens, 72 h, primary screen, NAMEC8-SERPINE1prom-Luc cells grown 3 days with compound, relative to DMSO, read-out: Avr FF/Renilla from DMSO",50%
same,viability at 10 µM,"[6]; Homo sapiens, 72 h, read-out: % Avr Renilla from DMSO",87%
same,tumor cell growth,MCF7-Ras,no impact on the tumor cell growth was observed
COc1cc2c(NC3CCN(C(C)C)CC3)nc(N3CCC(F)(F)CC3)nc2cc1OCCCN1CCCC1 [UNC0642],expression of EMT and basal/luminal markers,NAMEC8 [1],no apparent change was observed
CC(=O)O[C@H]1C(=O)[C@@]2(C)[C@H]([C@H](OC(=O)c3ccccc3)[C@]3(O)C[C@H](OC(=O)[C@H](O)[C@@H](NC(=O)c4ccccc4)c4ccccc4)C(C)=C1C3(C)C)[C@]1(OC(C)=O)CO[C@@H]1C[C@@H]2O [paclitaxel],"increase in paclitaxel-resistance, PACR vs parental (PT) cells",SUM159 PACR cells,> 20 fold
